{"source": "patent US20030119728A1", "about": "“Stable, nasally, orally or sublingually applicable pharmaceutical preparation” (priority 2000, published 2003)", "test": "Preliminary study of desmopressin preparations with various pH values, 6 weeks at 50° C. in glass flasks", "format": "physicochemical", "settings": "pH 1.0-7.0 tested, desmopressin content and sum of G1-G4", "procedure": "Desmopressin preparations with various pH values (1.0, 2.0, 3.0, 4.0, 5.0, 6.0, and 7.0) were investigated for these preliminary studies. These solutions were stored in glass flasks for 6 weeks at 50° C. and then analysed in the usual way with the use of analytical columns. After 6 weeks the pH values of the seven solutions were unchanged.", "data": [{"smiles": "NC(=O)CC[C@@H]1NC(=O)[C@H](Cc2ccccc2)NC(=O)[C@H](Cc2ccc(O)cc2)NC(=O)CCSSC[C@@H](C(=O)N2CCC[C@H]2C(=O)N[C@H](CCCN=C(N)N)C(=O)NCC(N)=O)NC(=O)[C@H](CC(N)=O)NC1=O", "note": "[desmopressin, 1-deamino-8-D-arginine-vasopressin]", "values": [{"measurement": "pH region in which desmopressin is most stable", "result": "~5.0"}]}]}
